Measured values reported in patent US20090030073A1, “PLANT-DERIVED THERAPEUTIC AGENT FOR MALIGNANT” (priority 2006, published 2009).

Each compound was assayed on neuroblastoma cell strains IMR-32, SK—N—SH, and NB-39 (assay: MTT assay, anti-malignant-tumor effect on neuroblastoma cell strains). Settings: 48 hours incubation.
Format: cell-based
Description: The anti-malignant-tumor effect of compounds (1), (2a), (2b), and (2c) on neuroblastoma cell strains IMR-32, SK—N—SH, and NB-39 was investigated using the MTT assay.
Specifically, each type of cells was seeded onto a 96-well plate so that the cell density was adjusted to 1×10^4 cells/well, and each drug compound was added to the wells 24 hours after seeding, followed by incubation under 5%-CO2 at 37° C. for 48 hours. Subsequently, an MTT solution was added to the wells, and blue formazan formed three hours after addition was well-mixed through pipetting. The absorbance of each well was measured at 570 nm (top) and 655 nm (bottom), and the survival cell rate with respect to the control group was calculated. In this assay, formation of blue formazan caused by activity of mitochondria is observed only when cells survive.

How did the “cytotoxicity to neuroblastoma cells (survival cell rate, FIGS. 2 to 13)” value (“cytotoxicity to neuroblastoma cells” below) turn out when `C=CC[C@]12CC=CC(=O)[C@@]1(O)O[C@H](c1ccc(OC)c(OC)c1)[C@H]2C` [compound (2a)] was run?
The value was “intense cytotoxicity”.

How did the “cytotoxicity to neuroblastoma cells” value turn out when `C=CC[C@]12CC=CC(=O)[C@@]1(O)O[C@H](c1cc(OC)c3c(c1)OCO3)[C@H]2C` [compound (2c), ferrearin G] was run?
Its value is “intense cytotoxicity”.

For `C=CCOc1c(OC)cc2c(c1OC)O[C@H](c1ccc3c(c1)OCO3)[C@H]2C` [compound (1)], which “cytotoxicity to neuroblastoma cells” value is on record?
The value was “intense cytotoxicity”.

With `C=CC[C@]12CC=CC(=O)[C@@]1(O)OC(c1ccc3c(c1)OCO3)[C@H]2C` (stereo partly shown) [compound (2b), ferrearin C] as the compound, how does the “cytotoxicity to neuroblastoma cells” value read?
The value was “intense cytotoxicity”.
